Test results reported in patent US11485734B2, “Beta-carbolines as positive allosteric modulators of the human serotonin receptor 2C (5-HT2C)” (Northwestern University, priority 2018, dated 2022).
“Also recorded” adds a separate entry of the source.

Assays:
[1] = molecular target: T1, human serotonin receptor 2C (5-HT2c) (Homo sapiens, UniProt P28335); experiment: 2C agonist activity of selected compounds; format: cell-based
T1 sequence (P28335 33-458): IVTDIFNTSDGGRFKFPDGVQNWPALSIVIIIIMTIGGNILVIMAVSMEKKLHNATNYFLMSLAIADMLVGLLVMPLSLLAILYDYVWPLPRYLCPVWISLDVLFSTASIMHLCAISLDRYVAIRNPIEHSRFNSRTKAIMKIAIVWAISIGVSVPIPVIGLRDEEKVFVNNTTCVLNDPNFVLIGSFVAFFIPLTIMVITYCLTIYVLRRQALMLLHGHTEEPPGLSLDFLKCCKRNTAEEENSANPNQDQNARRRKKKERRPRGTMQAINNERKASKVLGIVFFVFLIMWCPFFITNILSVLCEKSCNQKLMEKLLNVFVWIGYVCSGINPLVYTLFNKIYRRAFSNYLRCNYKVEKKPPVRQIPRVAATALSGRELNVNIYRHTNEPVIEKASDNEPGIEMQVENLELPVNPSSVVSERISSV

[2] = molecular target: T1, human serotonin receptor 2C (5-HT2c); experiment: 2C antagonist activity of selected compounds; format: cell-based
5-HT2a receptor = 5-HT2a receptor (Homo sapiens, UniProt P28223); experiment: 2A agonist activity of selected compounds; format: cell-based
mice [3] = experiment: Amphetamine-induced increase in locomotor activity (LMA); format: in vivo; conditions: AJC-61 2 mg/kg, amphetamine 2.5 mg/kg, eight 15 minute intervals
Description: FIG. 1. […] The effect of AJC-61 (2 mg/kg) on amphetamine-induced (2.5 mg/kg) increase in locomotor activity in mice.
(§1) The ability of a test drug to block the increase in Locomotor Activity (LMA) produced by amphetamine or the glutamate receptor […], phencyclidine (PCP), has a high predictive value for the antipsychotic efficacy of the test drug for treating schizophrenia. […] As such, we tested the effect of AJC-61 on reducing LMA in mice that had been treated with amphetamine or PCP to increase LMA activity.

mice [4] = experiment: PCP-induced increase in locomotor activity (LMA); format: in vivo; conditions: AJC-61 2 mg/kg, PCP 10 mg/kg, eight 15 minute intervals
Description: FIG. 2. […] The effect of AJC-61 (2 mg/kg) on PCP-induced (10 mg/kg) increase in locomotor activity in mice.
as §1

male C57BL/6J mice = experiment: Novel Object Recognition in PCP-treated mice; format: in vivo; conditions: AJC-61 2 mg/kg, PCP 10 mg/kg
Description: FIG. 3. Novel Object Recognition: Discrimination index (DI) for male C57BL/6J mice treated with Vehicle, PCP (10 mg/kg), and PCP+AJC-61 (2 mg/kg). Data are shown as mean±S.E.M. of exploration time (s) n=10 mice per group.
The Novel Object Recognition test in rodents is considered a valid model of spatial memory in man. […] Normal mice remember for ˜24 hours. The time to loss of the memory in aged mice can be as low as zero to less than 8 hours. As such, we tested the effect of AJC-61 on reducing the DI in mice that had been treated with PCP to reduce the DI.

mice [5] = experiment: Social Interaction in PCP-treated mice; format: in vivo; conditions: AJC-61 2 mg/kg; PCP 10 mg/kg i.p. 7 days b.i.d.; 10-minute paradigm
Description: FIG. 4. Social Interaction: Effect of Vehicle, PCP (10 mg/kg: i.p., 7 days: b.i.d.), and PCP+AJC-61 (2 mg/kg), on social behaviors (sniffling, following, and avoiding) and interaction with inanimate object (object exploration), in a 10-minute social interaction (SI) paradigm. Data were analyzed by one-way ANOVA comparing the effect of drug treatment on each behavior and are shown as mean±S.E.M. of time (s); n=10 pairs of mice per group.
A healthy mouse will vigorously explore a newly introduce mouse and retain the memory for that mouse for up to 24 hours. The loss of interest in exploring a novel mouse is considered a sign of negative symptoms.
PCP-treatment produces a deficit in social interaction which models negative symptoms in schizophrenia. These include lack of motivation, loss of interest in activities, diminished capacity for pleasure and spontaneous activity. We tested the effect of AJC-61 on Social Interaction in mice that had been treated with PCP, including a Social Behaviors that include sniffing, following, and avoiding and Object Exploration via interaction with an inanimate object.

mice [6] = experiment: Porsolt Forced Swim Test (FST) in PCP-treated mice; format: in vivo; conditions: AJC-61 2 mg/kg, PCP 10 mg/kg i.p. 7 days b.i.d., 6-min FST
Description: FIG. 5. Porsolt Forced Swim Test (FST). Effect of Vehicle, PCP (10 mg/kg; i.p., 7 days; b.i.d.), and PCP+AJC-61 (2 mg/kg), in a 6-min Porsolt Forced Swim Test (FST).
The Porsolt Forced Swim Test (FST) is a gold standard test for antidepressant action. In the FST, normal mice become immobile after being required to swim in a tank and begin to float instead of struggling to get out of the water. […] As such, we tested whether AJC-61 could increase the swim time in a FST.

mice [7] = experiment: Marble Burying Task (MBT) in PCP-treated mice; format: in vivo; conditions: AJC-61 2 mg/kg; PCP 10 mg/kg i.p. 7 days b.i.d.; 30-minute MBT; listed as AJC-16
Description: FIG. 6. Marble Burying Task (MBT): Effect of Vehicle, PCP (10 mg/kg; i.p., 7 days; b.i.d.), and PCP+AJC-61 (2 mg/kg) in a 30-minute Marble Burying Task (MBT) paradigm.
(§2) Marble Burying (MB) and extent of shredding a standard type of rodent bedding (i.e., Nestlet Shredding) are both proven methods for assessing drug efficacy to treat obsessive-compulsive disorder and Tourette's syndrome. As such, we tested the effect on AJC-61 on Marble Burying and Nestlet Shredding.

mice [8] = experiment: Nestlet Shredding (NS) in PCP-treated mice; format: in vivo; conditions: AJC-61 2 mg/kg; PCP 10 mg/kg i.p. 7 days b.i.d.; 30-minute NS; listed as AJC-16
Description: FIG. 7. Nestlet Shredding (NS): Effect of Vehicle, PCP (10 mg/kg; i.p., 7 days; b.i.d.), and PCP+AJC-61 (2 mg/kg) in a 30-minute Nestlet Shredding (NS) paradigm.
as §2

22-month old mice = experiment: Novel Object Recognition in aged mice; format: in vivo; conditions: AJC-61 2 mg/kg
Description: FIG. 8. Novel Object Recognition: Effect on discrimination index (DI) of Vehicle and AJC-61 (2 mg/kg) on 2.5 month old mice and 22-month old mice Data are shown as mean±S.E.M. of exploration time (s): n=14 pairs of mice per group.
Aged mice show a decline in memory function beginning around 13-15 month of age. Drugs which enhance memory can be assessed using the Novel Object Recognition test and determination of the Discrimination Index (DI) as discussed above. As such, we tested whether AJC-61 could improve the DI for aged mice (i.e., 22-month old mice) versus young mice (i.e., 2.5 month old mice).

5-HT2a receptor, sequence (P28223 whole entry): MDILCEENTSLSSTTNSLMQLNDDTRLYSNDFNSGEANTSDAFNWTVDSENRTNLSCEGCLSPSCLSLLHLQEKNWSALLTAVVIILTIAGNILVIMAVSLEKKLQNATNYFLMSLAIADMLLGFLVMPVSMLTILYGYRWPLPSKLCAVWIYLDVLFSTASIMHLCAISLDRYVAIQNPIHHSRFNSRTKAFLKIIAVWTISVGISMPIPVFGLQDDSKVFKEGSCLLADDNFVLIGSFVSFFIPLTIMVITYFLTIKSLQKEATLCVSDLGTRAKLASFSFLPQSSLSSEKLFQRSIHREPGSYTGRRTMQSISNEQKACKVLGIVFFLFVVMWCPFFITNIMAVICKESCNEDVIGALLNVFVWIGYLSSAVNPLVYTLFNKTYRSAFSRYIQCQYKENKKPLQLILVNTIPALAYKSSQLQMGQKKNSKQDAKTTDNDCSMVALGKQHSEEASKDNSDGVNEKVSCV

Oc1ccc2[nH]c3c(-c4cncnc4)nccc3c2c1 [AJC-61, 1-(pyrimidin-5-yl)-9H-pyrido[3,4-b]indol-6-61]
2C agonist [1]: inactive
IC50 [2]: > 10000 nM
2A agonist (5-HT2a receptor): inactive
Effect on amphetamine-induced increase in locomotor activity (mice [3]): blocked amphetamine-induced increase in locomotor activity; also recorded: blocked the amphetamine-induced increase in LMA
Effect on PCP-induced increase in locomotor activity (mice [4]): blocked PCP-induced increase in locomotor activity; also recorded: blocked the PCP-induced increase in LAM
Discrimination index (DI), PCP+AJC-61 versus PCP (male C57BL/6J mice): significant increase in DI
Object exploration (inanimate object) (mice [5]): no significant change
Social interaction: avoiding, PCP+AJC-61 versus PCP (mice [5]): significant decrease in avoiding
Social interaction: following (mice [5]): no significant change
Social interaction: sniffing, PCP+AJC-61 versus PCP (mice [5]): significant increase in sniffing
Immobility time, PCP+AJC-61 versus PCP (mice [6]): significantly decreased the immobility time
Immobility time, PCP+AJC-61 versus PCP (mice [6]; listed as AJC-16): Significant decrease in immobility time
Number of marbles buried, PCP+AJC-61 versus PCP (mice [7]): significant decrease in the number of marbles buried
Percent nestlet shredded, PCP+AJC-61 versus PCP (mice [8]): significant decrease in the percent nestlet shredded
Discrimination index (DI), AJC-61 versus Vehicle (22-month old mice): significant increase in the DI

Fc1ccc2[nH]c3c(c2c1)CCNC3c1cncnc1 (stereo not drawn) [MJO-01-31]
EC50 [1]: 10.1 nM
Emax [1]: 101%
EC50 (5-HT2a receptor): 54.6 nM
Emax (5-HT2a receptor): 95%

Oc1ccc2[nH]c3c(c2c1)CCNC3c1ccccc1O (stereo not drawn) [MJO-01-34]
EC50 [1]: 85.9 nM
Emax [1]: 103%
EC50 (5-HT2a receptor): 106 nM
Emax (5-HT2a receptor): 27%

Clc1ccc2[nH]c3c(c2c1)CCNC3CCc1ccccc1 (stereo not drawn) [MJO-01-46]
EC50 [1]: 5.37 nM
Emax (2C agonist) [1]: 98%
EC50 (5-HT2a receptor): 11.3 nM
Emax (2A agonist) (5-HT2a receptor): 96%
